The source of these data is patent US20220341922A1, “FLUORESCENT PROBE FOR USE IN DETECTION OF BRAIN TUMOR” (The University of Tokyo, priority 2019, published 2022).

The target of assay [1] is T1, calpain 1 (Homo sapiens, UniProt P07384).
T1 sequence (P07384 1-714): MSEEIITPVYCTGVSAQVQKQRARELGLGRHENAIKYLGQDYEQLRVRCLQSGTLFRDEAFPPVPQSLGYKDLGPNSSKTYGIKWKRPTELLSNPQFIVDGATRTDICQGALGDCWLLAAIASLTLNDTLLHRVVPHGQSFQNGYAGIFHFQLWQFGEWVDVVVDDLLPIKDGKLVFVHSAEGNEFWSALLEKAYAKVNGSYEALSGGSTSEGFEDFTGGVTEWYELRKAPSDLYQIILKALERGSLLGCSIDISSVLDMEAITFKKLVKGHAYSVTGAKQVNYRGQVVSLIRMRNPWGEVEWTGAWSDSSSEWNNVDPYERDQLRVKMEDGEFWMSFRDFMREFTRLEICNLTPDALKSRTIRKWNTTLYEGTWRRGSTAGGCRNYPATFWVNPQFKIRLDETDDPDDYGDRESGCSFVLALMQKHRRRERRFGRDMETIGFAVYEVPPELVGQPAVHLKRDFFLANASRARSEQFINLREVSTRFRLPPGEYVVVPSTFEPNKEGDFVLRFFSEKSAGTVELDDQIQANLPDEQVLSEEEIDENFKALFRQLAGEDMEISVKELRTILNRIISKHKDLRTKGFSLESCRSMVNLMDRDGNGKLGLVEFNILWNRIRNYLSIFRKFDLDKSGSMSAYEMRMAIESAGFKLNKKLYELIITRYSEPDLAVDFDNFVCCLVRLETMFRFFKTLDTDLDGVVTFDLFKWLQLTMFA
T1 sequence (P04632 1-268 partner): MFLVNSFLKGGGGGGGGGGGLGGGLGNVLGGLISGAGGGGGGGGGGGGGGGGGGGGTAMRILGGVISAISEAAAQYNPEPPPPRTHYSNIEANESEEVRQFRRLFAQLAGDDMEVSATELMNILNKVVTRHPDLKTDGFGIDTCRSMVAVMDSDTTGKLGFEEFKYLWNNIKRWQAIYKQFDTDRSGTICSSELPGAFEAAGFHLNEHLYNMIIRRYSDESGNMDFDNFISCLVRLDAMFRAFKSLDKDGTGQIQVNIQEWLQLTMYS
The assay can be described thus: Change in fluorescence intensity of candidate enzymes using inhibitors. The assay is classed as biochemical. The conditions noted are these: candidate enzyme calpain 1.

The target of assay [2] is T2, cathepsin D (Homo sapiens, UniProt P07339). The assay is described as above. The assay is classed as biochemical. The conditions noted are these: candidate enzyme cathepsin D.
In assay [3] the test system is fresh glioblastoma and peritumoral tissue. The assay can be described thus: Screening by fluorescent probe on fresh glioblastoma and peritumoral tissue specimens. The settings on record: for tumor-specific fluorescent labeling as compared with the surrounding tissue: 50 μM probe solution in PBS, 0.5% v/v DMSO, Ex 465 nm, Em 515 nm, FIGS. 1 and 2; for fluorescence intensity in the tumor: 50 μM probe solution. As to the method:
The fluorescent intensity of fresh glioblastoma and peritumoral tissue were compared using the fluorescent probes YK190, YK213, YK19, and YK281 synthesized in Example 1. As a comparative example, hydroxymethyl rhodamine green (HRMG) having no dipeptide site was used.
50 μM probe solutions (200 μL) in PBS, containing 0.5% v/v DMSO as a co-solvent was added dropwise to each specimen, and the fluorescence intensity was measured over time using Maestro In Vivo Imaging System Ex. • Excitation wavelength: 465 nm • Emission wavelength: 515 nm

The target in assay [4] is T1, calpain 1. Briefly: Reaction of fluorescent probe with purified enzyme. The assay is classed as biochemical. The conditions noted are these: purified calpain 1; FIG. 4.
Assay [5] has as its target T2, cathepsin D. The assay can be described thus: Reaction of fluorescent probe with purified enzyme. The conditions noted are these: FIG. 4. The assay is classed as biochemical.
Assay [6] has as its system calpain 1 knocked down in U87 glioblastoma cell line. Briefly: Verification by siRNA knock-down using U87 cell line. It is filed as cell-based. The conditions noted are these: calpain 1 knocked down by siRNA, 48 hours culture; FIG. 5. On the procedure:
(§1) Calpain 1 and cathepsin D were knocked down by siRNA in a cell line, and a reaction with the fluorescent probe YK190 was observed. The experiment was conducted in accordance with the procedure shown below.
(§2) Transfection of U87, a glioblastoma cell line, was done with siRNA utilizing lipofectamine. A reaction with a fluorescent probe was observed after culture for 48 hours.

Assay [7] concerns cathepsin D knocked down in U87 glioblastoma cell line. Described as above. The conditions noted are these: 48 hours culture, FIG. 5. It is filed as cell-based. On the procedure: as §1, §2

T2 sequence (P07339 65-412, species assumed): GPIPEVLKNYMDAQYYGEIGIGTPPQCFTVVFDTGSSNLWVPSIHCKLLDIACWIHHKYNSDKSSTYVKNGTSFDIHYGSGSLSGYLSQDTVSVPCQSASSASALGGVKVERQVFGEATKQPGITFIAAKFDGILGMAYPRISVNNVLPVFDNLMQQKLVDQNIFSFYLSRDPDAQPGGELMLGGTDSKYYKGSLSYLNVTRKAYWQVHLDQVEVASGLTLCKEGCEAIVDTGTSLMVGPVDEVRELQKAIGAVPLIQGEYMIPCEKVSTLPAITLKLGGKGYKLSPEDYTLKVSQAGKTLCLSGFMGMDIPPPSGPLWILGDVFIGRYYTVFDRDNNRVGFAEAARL

On to `COCCOCCOC(=O)N[C@@H](CC(C)C)C(=O)N[C@@H](Cc1ccccc1)C(=O)C(=O)NC1CC1` [SNJ-1945], for which the “change in fluorescence intensity with inhibitor” value on calpain 1 [1] and on cathepsin D [2] was “fluorescence suppression” throughout.
Take `N[C@@H](Cc1ccc(O)cc1)C(=O)O` [YK19, Tyrosine]: the “tumor-specific fluorescent labeling as compared with the surrounding tissue” value in assay [3] is reported as “a fluorescent response was also well-obtained in a tumor-specific manner”.
For `N=C(N)NCCC[C@H](N)C(=O)O` [YK190, Arginine], the “tumor-specific fluorescent labeling as compared with the surrounding tissue” value in assay [3] was “fluorescent labeling was performed in a tumor-specific manner”. Moreover, the “fluorescence intensity in the tumor” value in assay [3] (FIG. 2) is given as “high fluorescence intensity”. The “fluorescence intensity relative to YK213” value in assay [3] (in the tumor, FIG. 2) is “about two times that of YK213”. The “change in fluorescence intensity by reaction with the probe” value at calpain 1 [4] and at cathepsin D [5] was “significant increase in fluorescence intensity” in each case. Also, the “fluorescence intensity compared to the control U87 cell line” value in assay [6] and in assay [7] was “reduced fluorescence intensity” in each case.
For `N[C@@H](Cc1c[nH]cn1)C(=O)O` [YK213, Histidine], the “tumor-specific fluorescent labeling as compared with the surrounding tissue” value in assay [3] is “fluorescent labeling was performed in a tumor-specific manner”. The “fluorescence intensity in the tumor” value in assay [3] (FIG. 2) is listed as “high fluorescence intensity”.
